Source: BigSolDB 2.1

For `COc1ccc2nc(SCc3ncc(C)c(OC)c3C)[nH]c2c1`, the solubility (mole fraction) (in ethanol, 277.65 K) was 0.0029, the solubility (mole fraction) (in ethanol, 282.65 K) was 0.00371 and the solubility (mole fraction) (in ethanol, 288.15 K) was 0.00483. For the same compound, the solubility (mole fraction) (in ethanol, 293.15 K) was 0.00614, the solubility (mole fraction) (in ethanol, 298.05 K) was 0.00773 and the solubility (mole fraction) (in ethanol, 302.15 K) was 0.00935. For the same compound, the solubility (mole fraction) (in ethanol, 307.65 K) was 0.012, the solubility (mole fraction) (in ethanol, 313.15 K) was 0.0155 and the solubility (mole fraction) (in ethanol, 317.65 K) was 0.0189. The solubility (mole fraction) (in ethanol, 322.15 K) was 0.0231, the solubility (mole fraction) (in ethanol, 327.65 K) was 0.0293 and the solubility (mole fraction) (in ethanol, 333.15 K) was 0.0372. It also gave a solubility (mole fraction) (in ethyl acetate, 277.65 K) of 0.0117, a solubility (mole fraction) (in ethyl acetate, 282.65 K) of 0.0168 and a solubility (mole fraction) (in ethyl acetate, 288.15 K) of 0.0244. The solubility (mole fraction) (in ethyl acetate, 293.15 K) was 0.0337, the solubility (mole fraction) (in ethyl acetate, 298.05 K) was 0.0455 and the solubility (mole fraction) (in ethyl acetate, 302.15 K) was 0.0577. The solubility (mole fraction) (in ethyl acetate, 307.65 K) was 0.0781, the solubility (mole fraction) (in ethyl acetate, 313.15 K) was 0.104 and the solubility (mole fraction) (in ethyl acetate, 317.65 K) was 0.129. For the same compound, the solubility (mole fraction) (in ethyl acetate, 322.15 K) was 0.16, the solubility (mole fraction) (in ethyl acetate, 327.65 K) was 0.203 and the solubility (mole fraction) (in ethyl acetate, 333.15 K) was 0.256.
